Consider six compounds from patent US6599901B1, “Pyridone substituted benzothiazole derivatives” (Hoffman-La Roche Inc., priority 2001, dated 2003).

The target of the first assay is T1, human adenosine A2A receptor (Homo sapiens, UniProt P29274).
T1 construct: expressed in transfected cells; host or cells: CHO cells, semliki forest virus expression system
T1 sequence (P29274 whole entry): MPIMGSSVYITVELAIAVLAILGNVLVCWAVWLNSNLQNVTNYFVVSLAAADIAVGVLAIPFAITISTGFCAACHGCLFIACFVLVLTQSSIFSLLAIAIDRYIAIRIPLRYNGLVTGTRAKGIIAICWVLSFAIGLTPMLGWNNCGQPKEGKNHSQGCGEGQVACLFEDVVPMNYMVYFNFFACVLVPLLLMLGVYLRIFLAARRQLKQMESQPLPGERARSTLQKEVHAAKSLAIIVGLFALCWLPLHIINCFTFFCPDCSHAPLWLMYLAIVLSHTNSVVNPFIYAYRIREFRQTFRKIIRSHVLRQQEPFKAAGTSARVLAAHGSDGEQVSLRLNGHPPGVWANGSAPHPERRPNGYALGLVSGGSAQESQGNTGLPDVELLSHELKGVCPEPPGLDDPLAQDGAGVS
The assay is described as follows: [3H]-SCH-58261 binding assay, human adenosine A2A receptor (CHO cell membranes, SPA). The settings on record: recombinant human A2A receptor in CHO membranes; [3H]-SCH-58261 1 nM; Ki by Cheng-Prussoff; read-out: hA2 (pKi) (converted). The procedure:
(§1) The human adenosine A2A receptor was recombinantly expressed in chinese hamster ovary (CHO) cells using the semliki forest virus expression system. Cells were harvested, washed twice by centrifugation, homogenised and again washed by centrifugation. The final washed membrane pellet was suspended in a Tris (50 mM) buffer containing 120 mM NaCl, 5 mM KCl, 2 mM CaCl2 and 10 mM MgCl2 (pH 7.4) (buffer A). The [^3H]-SCH-58261 (Dionisotti et al., 1997, Br J Pharmacol 121, 353; 1 nM) binding assay was carried out in 96-well plates in the presence of 2.5 μM of membrane protein, 0.5 mg of Ysi-poly-1-lysine SPA beads and 0.1 U adenosine deaminase in a final volume of 200 μl of buffer A. Non-specific binding was defined using xanthine amine congener (XAC; 2 μM). Compounds were tested at 10 concentrations from 10 μM-0.3 nM. All assays were conducted in duplicate and repeated at least two times. Assay plates were incubated for 1 hour at room temperature before centrifugation and then bound ligand determined using a Packard Topcount scintillation counter. IC50 values were calculated using a non-linear curve fitting program and Ki values calculated using the Cheng-Prussoff equation.
For `COc1ccc(N2CCOCC2)c2sc(NC(=O)c3ccn(Cc4ccccc4)c(=O)c3)nc12` [Example 1, 1-Benzyl-2-oxo-1,2-dihydro-pyridine-4-carboxylic Acid (4-Methoxy-7-morpholin-4-yl-benzothiazol-2-yl)-amide], the Ki was 2.14 nM.

Consider `CCOC(=O)Cn1ccc(C(=O)Nc2nc3c(OC)ccc(N4CCOCC4)c3s2)cc1=O` [Example 2, [4-(4-Methoxy-7-morpholin-4-yl-benzothiazol-2-ylcarbamoyl)-2-oxo-2H-pyridin-1-yl]-acetic Acid Ethyl Ester], for which the Ki is 6.46 nM.

In the case of `CCC(=O)Cn1ccc(C(=O)Nc2nc3c(OC)ccc(N4CCOCC4)c3s2)cc1=O` [Example 3, 2-oxo-1-(2-oxo-Butyl)-1,2-dihydro-pyridine-4-carboxylic Acid (4-Methoxy-7-morpholin-4-yl-benzothiazol-2-yl)-amide], the Ki was 5.75 nM.

For `COc1ccc(N2CCOCC2)c2sc(NC(=O)c3ccn(Cc4ccccn4)c(=O)c3)nc12` [Example 4, 2-oxo-1-Pyridin-2-ylmethyl-1,2-dihydro-pyridine-4-carboxylic Acid (4-Methoxy-7-morpholin-4-yl-benzothiazol-2-yl)-amide], the Ki was 7.94 nM.

Regarding `COc1ccc(N2CCOCC2)c2sc(NC(=O)c3ccn(CC(=O)N4CCOCC4)c(=O)c3)nc12` [Example 5, 1-(2-Morpholin-4-yl-2-oxo-ethyl)-2-oxo-1,2-dihydro-pyridine-4-carboxylic Acid (4-Methoxy-7-morpholin-4-yl-benzothiazol-2-yl)-amide], the Ki is 58.9 nM.

For `COc1ccc(N2CCOCC2)c2sc(NC(=O)c3ccn(CC(=O)N(C)C)c(=O)c3)nc12` [Example 6, 1-Dimethylcarbamoylmethyl-2-oxo-1,2-dihydro-pyridine-4-carboxylic Acid (4-Methoxy-7-morpholin-4-yl-benzothiazol-2-yl)-amide], the Ki is 50.1 nM.

For a further assay, the target named is T2, human adenosine A1 receptor (Homo sapiens, UniProt P30542).
T2 construct: expressed in transfected cells; host or cells: CHO cells, semliki forest virus expression system
T2 sequence (P30542 1-326): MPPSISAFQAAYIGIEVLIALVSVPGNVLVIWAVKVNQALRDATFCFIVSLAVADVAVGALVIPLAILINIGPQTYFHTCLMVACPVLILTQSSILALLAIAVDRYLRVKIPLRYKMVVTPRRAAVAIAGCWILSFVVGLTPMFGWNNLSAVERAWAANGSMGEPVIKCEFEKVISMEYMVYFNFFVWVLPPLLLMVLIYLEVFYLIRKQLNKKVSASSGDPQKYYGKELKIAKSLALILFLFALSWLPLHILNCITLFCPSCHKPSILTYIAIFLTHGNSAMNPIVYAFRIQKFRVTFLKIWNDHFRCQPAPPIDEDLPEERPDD
The assay is described as follows: [3H]-DPCPX binding assay, human adenosine A1 receptor (CHO cell membranes, SPA). The settings on record: recombinant human A1 receptor in CHO membranes; [3H]-DPCPX 0.6 nM; Ki by Cheng-Prussoff; read-out: hA1 (pKi) (converted). The protocol: as §1, with “adenosine A1” for “adenosine A2A”, “The [^3H]-DPCPX (([propyl-^3H]8-cyclopentyl-1,3-dipropyxanthine); 0.6” for “The [^3H]-SCH-58261 (Dionisotti et al., 1997, Br J Pharmacol 121, 353; 1”, “2.5 μg” for “2.5 μM”
As for `COc1ccc(N2CCOCC2)c2sc(NC(=O)c3ccn(Cc4ccccc4)c(=O)c3)nc12` [Example 1, 1-Benzyl-2-oxo-1,2-dihydro-pyridine-4-carboxylic Acid (4-Methoxy-7-morpholin-4-yl-benzothiazol-2-yl)-amide], the Ki was 1260 nM.
